Data: patent US20070009944A1, “Assay for nucleic acid ligase and nucleic acid nuclease” (University of East Anglia, priority 2005, published 2007)
pIC50: −log10 of the molar value. Counter-ions that a name gives are not always drawn.

Biological target: T1, E. coli DNA ligase (LigA) (Escherichia coli, UniProt P15042)
T1 construct: His tag; made in house
Test: In-well ligation of immobilised nicked DNA hairpins (fluorescence retention, micro-titre plate)
Format: biochemical
Settings: 15 nM E. coli DNA ligase; ligates 60% of immobilized hairpins without inhibitor; FIG. 8; read-out: 50% inhibition of E. coli DNA ligase activity
Method: Ligation of immobilised nicked hairpins was performed in the streptavidin coated wells of a micro-titre plate (StreptaWell HighBind 96-well plate, opaque, white). After each of the following steps were performed, the entire solution in the well was removed and stored or discarded, as required. Hairpins were immobilised by placing 80 μL of a 5 μM hairpin solution into each well. The hairpin solution was removed after 5 minutes and the wells washed 5 times with 100 μL Wash Buffer (30 mM Tris-HCl, 4 mM MgCl2, pH 8.1), which allowed a stable fluorescence signal to be obtained from the immobilised hairpins. […] Fluorescence was recorded with a FL×800 Microplate Fluorescence Reader (Bio-Tek Instruments Inc). […]
In-well ligation of the nicked DNA hairpins by LigA was reflected by retention of fluorescence after exposure to DNA ligase and denaturation conditions, as shown in FIG. 6. […] The retention of fluorescence after exposure to DNA ligase and denaturation conditions is in contrast to the almost complete loss of fluorescence noted when the experiment was repeated without DNA ligase. […] The efficiency of in-well ligation was calculated in the following manner. The fluorescence retained in control experiments with the nicked hairpin was taken as a measure of background fluorescence intensity. […]

T1 sequence (P15042 whole entry): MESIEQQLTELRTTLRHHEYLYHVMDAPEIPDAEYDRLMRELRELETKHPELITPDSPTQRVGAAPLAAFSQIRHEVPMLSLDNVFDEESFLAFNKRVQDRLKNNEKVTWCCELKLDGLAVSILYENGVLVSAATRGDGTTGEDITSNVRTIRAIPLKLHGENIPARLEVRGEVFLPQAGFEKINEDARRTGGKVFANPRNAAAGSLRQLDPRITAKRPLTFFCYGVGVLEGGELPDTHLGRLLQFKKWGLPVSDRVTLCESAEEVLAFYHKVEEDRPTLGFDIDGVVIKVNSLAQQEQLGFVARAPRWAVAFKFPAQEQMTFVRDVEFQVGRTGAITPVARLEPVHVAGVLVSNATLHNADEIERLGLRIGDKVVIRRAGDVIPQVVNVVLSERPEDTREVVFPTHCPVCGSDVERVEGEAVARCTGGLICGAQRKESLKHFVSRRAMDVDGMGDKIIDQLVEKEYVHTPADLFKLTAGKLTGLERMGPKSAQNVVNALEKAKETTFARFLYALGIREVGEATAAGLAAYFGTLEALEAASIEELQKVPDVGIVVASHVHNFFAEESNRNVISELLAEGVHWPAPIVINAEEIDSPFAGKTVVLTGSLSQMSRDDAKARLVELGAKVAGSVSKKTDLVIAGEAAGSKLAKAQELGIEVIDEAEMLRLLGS

`CCN(CC)CCCC(C)Nc1c2ccc(Cl)cc2nc2ccc(OC)cc12` (stereo not shown) [quinacrine, quinacrine dihydrochloride] showed a pIC50 of ~4.70.
